# From ChEMBL document CHEMBL1126611, “Modulation of leukocyte genetic expression by novel purine nucleoside analogues. A new approach to antitumor and antiviral agents” (1993)
# Legend:
# Rattus norvegicus = assay: Compound at a dose 100 mg/kg was administered to rat and Percent survivors after coronavirus infection in suckling rats.; format: functional
# Mus musculus [1] = species on record: Mus musculus; assay: Activity against Forest virus infection in mice; format: functional
# Mus musculus [2] = assay: Activity against Forest virus infection in mice after intraperitoneal administration of 100 mg/kg; format: functional
# Mus musculus [3] = species on record: Mus musculus; assay: Mean survival time of Forest virus infected mice that died; survivors lived through 21 days; format: functional
# Mus musculus [4] = assay: Mean survival time of Forest virus infected mice that died; survivors lived through 21 days after intraperitoneal administration of 100 mg/kg; format: functional
# Mus musculus [5] = species on record: Mus musculus; assay: Mean survival time of San Angelo virus infected mice that died; survivors lived through 21 days; format: functional
# Mus musculus [6] = assay: Activity against San Angelo virus infection in mice after intraperitoneal administration of 25 mg/kg; format: functional
# Mus musculus [7] = assay: Activity against San Angelo virus infection in mice after intraperitoneal administration of 50 mg/kg; format: functional
# Mus musculus [8] = assay: Activity against Forest virus infection in mice after intraperitoneal administration of 50 mg/kg; format: functional
# Mus musculus [9] = assay: Activity against Forest virus infection in mice after oral administration of 200 mg/kg; format: functional
# Mus musculus [10] = assay: Mean survival time of San Angelo virus infected mice that died; survivors lived through 21 days after intraperitoneal administration of 100 mg/kg; format: functional
# Mus musculus [11] = assay: Mean survival time of San Angelo virus infected mice that died; survivors lived through 21 days after intraperitoneal administration of 25 mg/kg; format: functional
# Mus musculus [12] = assay: Mean survival time of San Angelo virus infected mice that died; survivors lived through 21 days after intraperitoneal administration of 50 mg/kg; format: functional
# Mus musculus [13] = assay: Mean survival time of Forest virus infected mice that died; survivors lived through 21 days after intraperitoneal administration of 50 mg/kg; format: functional
# Mus musculus [14] = assay: Mean survival time of Forest virus infected mice that died; survivors lived through 21 days after oral administration of 200 mg/kg; format: functional
# Mus musculus [15] = species on record: Mus musculus; assay: Activity against San Angelo virus infection in mice; format: functional
# Mus musculus [16] = assay: Activity against San Angelo virus infection in mice after intraperitoneal administration of 100 mg/kg; format: functional
# Mus musculus [17] = species on record: Mus musculus; assay: Inhibition of […] murine melanoma artificial metastasis in lungs of C57BL/6j mice expressed as average of B16-F10 colonies in lungs from 6 or 7 mice on 17th day (no. of mice = 6); format: functional, Lung
# Mus musculus [18] = species on record: Mus musculus; assay: Inhibition of […] murine melanoma artificial metastasis in lungs of C57BL/6j mice expressed as average of B16-F10 colonies in lungs from 6 or 7 mice on 18-19th days (no. of mice = 7); format: functional, Lung
# Mus musculus [19] = assay: Mean survival time of San Angelo virus infected mice that died; survivors lived through 21 days after intraperitoneal administration of 10 mg/kg; format: functional
# Mus musculus [20] = assay: Mean survival time Forest virus infectedof mice that died; survivors lived through 21 days after intraperitoneal administration of 25 mg/kg; format: functional
# Mus musculus [21] = species on record: Mus musculus; assay: Mean survival time mice that died; survivors lived through 21 days; format: functional
# Mus musculus [22] = assay: Activity against Forest virus infection in mice, ip; format: functional
# Mus musculus [23] = assay: Activity against San Angelo virus infection in mice after intraperitoneal administration of 10 mg/kg; format: functional
# Mus musculus [24] = assay: Activity against Forest virus infection in mice after intraperitoneal administration of 25 mg/kg; format: functional
# Mus musculus [25] = assay: Activity against Forest virus infection in mice after intraperitoneal administration of 200 mg/kg; format: functional
# Mus musculus [26] = assay: Mean survival time of Forest virus infected mice that died; survivors lived through 21 days after intraperitoneal administration of 200 mg/kg; format: functional
smiles,measurement,setting,value
Nc1nc(=O)c2sc(=O)n([C@@H]3O[C@H](CO)[C@@H](O)[C@H]3O)c2[nH]1 [ISATORIBINE],Survivors,Rattus norvegicus,83%
Cn1c(=O)n(C2O[C@H](CO)[C@@H](O)[C@H]2O)c2nc(N)nc(O)c21 (some centres undefined),Survivors,Rattus norvegicus,75%
N#Cc1cn(C2O[C@H](CO)[C@@H](O)[C@H]2O)c2nc(N)nc(O)c12 (some centres undefined),Survivors,Mus musculus [1],8%
same,Survivors,Mus musculus [2],50%
same,Mean survival,Mus musculus [3],6 days
same,Mean survival,Mus musculus [4],8.5 days
Nc1nc2c(ccn2[C@@H]2O[C@H](CO)[C@@H](O)[C@H]2O)c(=O)[nH]1,Mean survival,Mus musculus [5],7.9 days
same,Survivors,Mus musculus [6],92%
same,Survivors,Mus musculus [7],100%
same,Survivors,Mus musculus [1],8%
same,Survivors,Mus musculus [2],83%
same,Survivors,Mus musculus [8],83%
same,Survivors,Mus musculus [9],83%
same,Mean survival,Mus musculus [10],>21 days
same,Mean survival,Mus musculus [11],9 days
same,Mean survival,Mus musculus [12],>21 days
same,Mean survival,Mus musculus [3],7.4 days
same,Mean survival,Mus musculus [4],6.5 days
same,Mean survival,Mus musculus [13],6 days
same,Mean survival,Mus musculus [14],8 days
same,Survivors,Mus musculus [15],33%
same,Survivors,Mus musculus [16],100%
same,Mean,Mus musculus [17],0.14
same,Mean,Mus musculus [18],0.17
Nc1nc(O)c2cc(Cl)n(C3O[C@H](CO)[C@@H](O)[C@H]3O)c2n1 (some centres undefined),Mean survival,Mus musculus [5],7.2 days
same,Mean survival,Mus musculus [19],8 days
same,Mean survival,Mus musculus [20],6 days
same,Mean survival,Mus musculus [21],7 days
same,Survivors,Mus musculus [22],8%
same,Survivors,Mus musculus [6],100%
same,Survivors,Mus musculus [7],100%
same,Survivors,Mus musculus [2],92%
same,Survivors,Mus musculus [8],100%
same,Mean survival,Mus musculus [11],>21 days
same,Mean survival,Mus musculus [12],>21 days
same,Mean survival,Mus musculus [3],6.5 days
same,Mean survival,Mus musculus [4],7 days
same,Mean survival,Mus musculus [13],>21 days
same,Survivors,Mus musculus [15],18%
same,Survivors,Mus musculus [23],58%
same,Survivors,Rattus norvegicus,92%
same,Survivors,Mus musculus [24],92%
Cn1c(=S)n(C2O[C@H](CO)[C@@H](O)[C@H]2O)c2nc(N)nc(O)c21 (some centres undefined),Survivors,Rattus norvegicus,58%
Nc1nc(O)c2c(C(=O)O)cn(C3O[C@H](CO)[C@@H](O)[C@H]3O)c2n1 (some centres undefined),Survivors,Mus musculus [1],17%
same,Survivors,Mus musculus [2],8%
same,Survivors,Mus musculus [25],33%
same,Mean survival,Mus musculus [3],6.8 days
same,Mean survival,Mus musculus [4],8.1 days
same,Mean survival,Mus musculus [26],6 days
